From US5856535A, “Aminosterol ester compounds” (priority 1996, dated 1999)
Values after ≈ are worked out from the molar mass of the structure shown. “Also recorded” adds a separate entry of the source. Where two headings read alike, the source gives them in different places.

Tests used:
S. aureus = test: antibiotic activity, S. aureus; assay type: cell-based; conditions: Staphylococcus aureus
C. albicans = test: antibiotic activity, C. albicans; assay type: cell-based; conditions: Candida albicans
E. Coli = test: antibiotic activity, E. Coli; assay type: cell-based; conditions: Escherichia coli
P. aerug = test: antibiotic activity, P. aerug; assay type: cell-based
red blood cells = test: swelling of red blood cells; assay type: cell-based
splenocytes = test: mitogen proliferation assay (splenocytes of treated mice, Con A); assay type: in vivo; conditions: for potency in the mitogen proliferation assay (in words): mouse, in vivo; for Rel. potency to MSI-1436, Mitogen Proliferation Assay: 10 mg/kg iv
Method: For the attached Tables, the mitogen proliferation assay was performed by treating mice (male or female) with various amounts of the aminosterol test compounds. Some time later (typically between 2 hours and 14 days), the mice are sacrificed and their spleens removed. Splenocytes are harvested and cultured in the presence of between 1-10 μg/ml of Con A (Sigma) for 48 hours. See James Morgan, "Monoclonal Antibody Production," Modern Methods in Pharmacology, pp. 29-67, eds., Spector and Back, 1988. This excerpt is entirely incorporated herein by reference. Cell proliferation is monitored either by direct cell counting or by measurement of the incorporation of radioactive thymidine.

melanoma cells = test: MTT assay for cell number; assay type: cell-based; conditions: for minimal effective concentration: 48 h, Table II, read-out: Minimum Effective Concentration, MTT assay
Method: In Table V, several aminosterol esters show efficacy in killing melanoma cells in the MTT assay.
(§1) The MTT assay for cell number is performed as follows. Cells are counted on a hemocytometer and diluted to a concentration of approx. 10,000 cells/well (55,000 cells/ml×0.18 ml). Cells are then plated in a 96 well microtiter plate and allowed to attach overnight. The next day, compounds are serially diluted from 1000 to 15.6 μg/ml and run in duplicate. 20 μl of each dilution are transferred to the pre-seeded microtiter plates. The final concentrations are 100 to 1.56 μg/ml. The plates are then incubated for 48 hours at 37° C. in 5% CO2. After 48 hours, MTT solution is added. The plate is re-incubated for 4 hours. Readings are done by removing all but 30 μl of media and MTT solution and dissolving the formazan crystals with DMSO. The formazan is dissolved by mixing on a rotating plate at low speed for about 30 minutes. Absorbance of converted dye is measured at a wavelength of 560 nm with background subtraction at 630 nm. The percent survival is determined by a comparison between the mean absorbance of the duplicate test lanes and the growth control.

LLC = LLC MTT; assay type: cell-based; conditions: Lewis lung carcinoma, 48 h; Table II; read-out: Minimum Effective Concentration, LLC MTT
Method: as §1

in vitro = conditions: human, pbmc
[1] = inhibition of MSI-1436 binding; conditions: 3H-MSI-1436 at 20 μg/mL
HIV = test: inhibition of HIV replication in vitro (HIV Inhib.); assay type: cell-based; conditions: for inhibition at 0.14 µM: Human immunodeficiency virus 1, read-out: % Inhib of HIV
[2] = tested on: human ovarian carcinoma, SKOV3; test: anticancer activity against SKOV3; assay type: cell-based
[3] = tested on: Xenopus laevis Stages 59-60 tadpoles; test: tadpole assay; assay type: in vivo; conditions: for effect on embryonic epithelium / epithelial shedding (in words): 10 μg/ml where stated
[4] = tested on: human microvascular cells; test: endothelial cell cord formation assay (human microvascular cells, VEGF and bFGF, collagen matrix); assay type: cell-based; conditions: for inhibition of angiogenesis (in words): higher doses; for minimal effective concentration: Homo sapiens, Endothelial cell
Source text: Endothelial cells have the capacity in vitro to form tubular aggregates resembling capillaries in various early stages of formation. This conversion occurs under relatively specific conditions, in which essential growth factors along with an effective substratum are provided. It has been shown that both the interaction of growth factors with the endothelial cell and its attachment to a substratum activate the NHE. The activation of this exchanger is believed to be required for subsequent morphologic transformation of the endothelial cell into a multicellular tubular structure.
To assess the effect of compounds on the cord-like structures formed by human microvascular cells when plated in the presence of VEGF (Vascular Endothelial Growth Factor) and basic fibroblast growth factor on a collagen matrix, a standard cord formation assay was performed using the method described by Goto, et al., "Synergistic Effects of Vascular Endothelial Growth Factor and Basic Fibroblast Growth Factor on the Proliferation and Cord Formation of Bovine Capillary Endothelial Cells Within Collagen Gels," Laboratory Investigation, Vol. 69, No. 5, 1993, pp. 508-517. This article is entirely incorporated herein by reference.

[5] = tested on: chick embryo vitelline capillaries; test: chick embryo vitelline capillary regression assay; assay type: in vivo; parameters: key to Chick embryo vitelline capillary regression: +: Vascular reactivity; 0: No vascular reactivity; +/-: Equivocal reactivity
Method: Using the chick embryo vitelline capillaries assay, various aminosterol compounds were tested for their ability to induce capillary regression. Each compound was applied in 0.1 ml of 15% Ficol 400 and PBS onto the embryo, and vascular regression was assessed after 60 minutes. These tests were conducted by the chorioallantoic membrane anti-angiogenesis assay by applying the material to be assayed to 3 day old fertilized chick embryos in the manner described by Wilks et al., "Inhibition of Angiogenesis With Combination Angiostatic Steroids and Suramin," Radiation Biology, Vol. 60, Nos. 1/2, 1991, pp. 73-77, which article is entirely incorporated herein by reference.
The 3-day chick embryo consists of an embryonic disc from which numerous vessels emerge and return, forming a "figure 8"-shaped structure--the embryo in the center with vascular loops extending outward over both poles. […] Following a lag period of around 15 minutes, the constriction of continuity between capillary and secondary vessels, generally on the "venous" side, was observed. Continued pulsatile blood flow progressed, resulting in a "swelling" of the blind tube, followed by a pinching off of the remaining connection and formation of an enclosed vascular sac resembling a "blood island." This process progressed until only the largest vessels remained intact.

CC(CCC(=O)O)[C@H]1CCC2C3C(CC[C@@]21C)[C@@]1(C)CC[C@H](NCCCNCCCCNCCCN)C[C@@H]1C[C@H]3O (stereo partly shown)
MIC (S. aureus): 16 µg/mL (≈ 27.7 µM)
MIC (C. albicans): 32 µg/mL (≈ 55.5 µM)
MIC (E. Coli): 32 to 64 µg/mL (≈ 55.5 to 111 µM)
MIC (P. aerug): 16 µg/mL (≈ 27.7 µM)

COC(=O)CC[C@@H](C)[C@H]1CC[C@H]2[C@@H]3C[C@@H](O)[C@H]4C[C@@H](NCCCNCCCCNCCCN)CC[C@]4(C)[C@H]3CC[C@]12C [Compound 466]
induction of swelling of red blood cells (in words) (red blood cells): induce swelling of red blood cells
potency in the mitogen proliferation assay (in words) (splenocytes): substantial potency

CC(CC[C@@H](OS(=O)(=O)O)C(C)C)[C@H]1CCC2C3C(CC[C@@]21C)[C@@]1(C)CC[C@H](NCCCNCCCCNCCCN)C[C@@H]1C[C@H]3O (stereo partly shown) [drawing 93]
minimal effective concentration (melanoma cells): 6.9 µg/mL
minimal effective concentration (LLC): 16.7 µg/mL

COC(=O)CC[C@@H](C)[C@H]1CC[C@H]2[C@@H]3CC[C@@H]4C[C@H](NCCCNCCCCNCCCN)CC[C@]4(C)[C@H]3CC[C@]12C [Compound 569]
MTT assay IC50 (melanoma cells; Tables III-V): 15 µg/mL
IC50 (melanoma cells; Tables III-V, read-out: MTT assay IC50): 14.5 µg/mL (≈ 25.2 µM)
cytotoxicity at 14 µM (in vitro): 9%
% Inhib. of MSI-1436 Binding @ 100 μg/mL [1]: 78%
Rel. potency to MSI-1436, Mitogen Proliferation Assay (splenocytes): 0.50
potency in the mitogen proliferation assay (in words) (splenocytes): substantial potency
inhibition of HIV relative to compound 1436 (in words) (HIV): higher inhibition of HIV than compound 1436
inhibition at 0.14 µM (HIV): 91%

CC(C)C(CO)(CC[C@@H](C)[C@H]1CC[C@H]2[C@@H]3[C@H](O)C[C@H]4C[C@@H](NCCCNCCCCN)CC[C@]4(C)[C@H]3CC[C@]12C)OS(=O)(=O)O (stereo partly shown) [Compound 1437]
anticancer activity (in words) [2]: exhibit anticancer activity
time to shedding of larval skin ([3]; 10 μg/ml): ≤ 60 min
effect on embryonic epithelium / epithelial shedding (in words) [3]: dramatic effect on the embryonic epithelium covering the tadpole tail; also recorded: larval skin was observed to shed off in a sheet

COC(=O)CCC(C)[C@H]1CCC2C3C(CC[C@@]21C)[C@@]1(C)CC[C@@H](NCCCNCCCCN)C[C@H]1C[C@H]3O (stereo partly shown) [drawing 38]
MIC (S. aureus): 4 µg/mL (≈ 7.49 µM)
MIC (C. albicans): 64 µg/mL (≈ 120 µM)
MIC (E. Coli): 32 to 64 µg/mL (≈ 59.9 to 120 µM)
MIC (P. aerug): 64 µg/mL (≈ 120 µM)

COC(=O)CC[C@@H](C)[C@H]1CC[C@H]2[C@@H]3[C@H](O)C[C@@H]4C[C@@H](NCCCNCCCCNCCCN)CC[C@]4(C)[C@H]3CC[C@]12C [Compound 411]
inhibition of angiogenesis (in words) [4]: inhibit angiogenesis at higher doses
Chick embryo vitelline capillary regression ([5]; 1 μg applied, 60 minutes): +/-

COC(=O)CCC(C)[C@H]1CCC2C3C(CC[C@@]21C)[C@@]1(C)CC[C@H](NCCCNCCCCN)C[C@H]1C[C@H]3O (stereo partly shown)
MIC (S. aureus): 64 µg/mL (≈ 120 µM)
MIC (C. albicans): 256 µg/mL (≈ 480 µM)
MIC (E. Coli): 256 µg/mL (≈ 480 µM)
MIC (P. aerug): > 256 µg/mL

COC(=O)CC[C@@H](C)[C@H]1CC[C@H]2[C@@H]3CC[C@H]4C[C@@H](NCCCNCCCCNCCCN)CC[C@]4(C)[C@H]3CC[C@]12C [Compound 459]
induction of swelling of red blood cells (in words) (red blood cells): induce swelling of red blood cells
potency in the mitogen proliferation assay (in words) (splenocytes): substantial potency

CC(C)CCCC(C)[C@H]1CCC2C3CC[C@H]4C[C@@H](NCCCNCCCCNCCCN)CC[C@]4(C)C3CC[C@@]21C (stereo partly shown)
minimal effective concentration ([4]; Table II, read-out: Minimum Effective Concentration, HM Cord Formation): 10 µg/mL
minimal effective concentration (melanoma cells): 3 µg/mL

C=C(C)C(=O)CC[C@@H](C)[C@H]1CC[C@H]2[C@@H]3[C@H](O)C[C@H]4C[C@@H](NCCCNCCCCN)CC[C@]4(C)[C@H]3CC[C@]12C [Compound 1361, reference compound]
induction of swelling of red blood cells (in words) (red blood cells): induce swelling of red blood cells

CC(CC[C@@H](OS(=O)(=O)O)C(C)C)[C@H]1CCC2C3C(CC[C@@]21C)[C@@]1(C)CC[C@H](NCCCNCCCCNCCCN)C[C@@H]1C[C@H]3O (stereo partly shown) [drawing 51]
MIC (S. aureus): 1 µg/mL (≈ 1.46 µM)
MIC (C. albicans): 8 µg/mL (≈ 11.7 µM)
MIC (E. Coli): 1 to 2 µg/mL (≈ 1.46 to 2.92 µM)
MIC (P. aerug): 4 µg/mL (≈ 5.84 µM)

CC(CCC(CO)(OS(=O)(=O)O)C(C)C)[C@H]1CCC2C3C(CC[C@@]21C)[C@@]1(C)CC[C@H](NCCCNCCCCN)C[C@@H]1C[C@H]3O (stereo partly shown) [drawing 52]
MIC (S. aureus): 2 µg/mL (≈ 3.04 µM)
MIC (C. albicans): 16 µg/mL (≈ 24.3 µM)
MIC (E. Coli): 4 µg/mL (≈ 6.08 µM)
MIC (P. aerug): 16 µg/mL (≈ 24.3 µM)

CC(CCC(=O)O)[C@H]1CCC2C3C(CC[C@@]21C)[C@@]1(C)CC[C@@H](NCCCNCCCCNCCCN)C[C@H]1C[C@H]3O (stereo partly shown)
MIC (S. aureus): 64 µg/mL (≈ 111 µM)
MIC (E. Coli): 8 µg/mL (≈ 13.9 µM)

CO[C@@H]1[C@H](OC(=O)/C=C/C=C/C=C/C=C/C(=O)O)CC[C@]2(CO2)[C@H]1[C@@]1(C)O[C@@H]1CC=C(C)C [Fumagillin, reference compound]
minimal effective concentration ([4]; text to the table, read-out: concentration at which cord formation is inhibited): 10 µg/mL

COC(=O)CC[C@@H](C)[C@H]1CC[C@H]2[C@@H]3C[C@@H](O)[C@H]4C[C@@H](NCCCNCCCCN)CC[C@]4(C)[C@H]3CC[C@]12C [Compound 566]
induction of swelling of red blood cells (in words) (red blood cells): induce swelling of red blood cells

CC(CCC(CO)(OS(=O)(=O)O)C(C)C)[C@H]1CCC2C3C(CC[C@@]21C)[C@@]1(C)CC[C@H](NCCCNCCCCN)C[C@@H]1C[C@H]3O (stereo partly shown) [drawing 99]
cytotoxicity at 14 µM (in vitro): 0%
% Inhib. of MSI-1436 Binding @ 100 μg/mL [1]: 14%
Rel. potency to MSI-1436, Mitogen Proliferation Assay (splenocytes): 1.08
inhibition at 0.14 µM (HIV): -44%

CC(C)[C@@H](CC[C@@H](C)[C@H]1CC[C@H]2[C@@H]3[C@H](O)C[C@H]4C[C@@H](NCCCNCCCCN)CC[C@]4(C)[C@H]3CC[C@]12C)OS(=O)(=O)O [drawing 92]
minimal effective concentration (melanoma cells): 7.8 µg/mL
minimal effective concentration (LLC): 13.2 µg/mL

COC(=O)CC[C@@H](C)[C@H]1CC[C@H]2[C@@H]3[C@H](O)C[C@@H]4C[C@H](NCCN)CC[C@]4(C)[C@H]3CC[C@]12C [Compound 410]
inhibition of angiogenesis (in words) [4]: inhibit angiogenesis at higher doses
effect on vitelline capillaries (in words) ([5]; 3- to 5-day chick embryo): substantial activity
effect on embryonic epithelium / epithelial shedding (in words) [3]: functionally similar to compound 1437
